Source: PubChem BioAssay AID1259408 (Genetic Toxicology Data Bank (GENE-TOX), 2018)
Calls of active or inactive are those of the source. The rule behind the calls is not given here.

Tested on: GENE-TOX genotoxicity assays, various organisms and cells
Assay: GENE-TOX mutagenicity studies
Details: for call: Assay Type: In vivo carcinogenicity studies
[1] = Species/Cell Type: Drosophila melanogaster, Assay Type: Sex-linked recessive lethal gene mutation, Assay Code: SRL+, Evaluation Type: Evaluation A (Pre-1980)
[2] = Species/Cell Type: Human, Assay Type: Sister-chromatid exchange (SCE) in vitro, Assay Code: SC1+D, Dose Response: With dose response, Evaluation Type: Evaluation B (Post-1980)
[3] = Species/Cell Type: Mammalian polychromatic erythrocytes, Assay Type: Micronucleus test, chromosome aberrations, Assay Code: MNTT, Evaluation Type: Evaluation A (Pre-1980)
[4] = Species/Cell Type: Neurospora crassa, Assay Type: Reverse gene mutation, Assay Code: NER+, Evaluation Type: Evaluation A (Pre-1980)
[5] = Species/Cell Type: Rodents, Sex: Male, Assay Type: Dominant lethal test, Assay Code: DLT-, Evaluation Type: Evaluation A (Pre-1980)
[6] = Species/Cell Type: Salmonella typhimurium (one or more of the five standard strains: TA98, TA100, TA1535, TA1537, and TA1538), Assay Type: Histidine reverse gene mutation, Ames assay, Assay Code: SAL-, Evaluation Type: Evaluation A (Pre-1980)
[7] = Species/Cell Type: Mouse, Sex: Male, Assay Type: Sperm morphology, Assay Code: SPI-, Evaluation Type: Evaluation A (Pre-1980)
[8] = Species/Cell Type: Syrian hamster embryo (SA7/SHE) cells, Assay Type: Cell transformation, viral enhanced, Assay Code: CT7+, Evaluation Type: Evaluation A (Pre-1980)
[9] = Species/Cell Type: Mammalian polychromatic erythrocytes, Assay Type: Micronucleus test, chromosome aberrations, Assay Code: MNT+, Evaluation Type: Evaluation B (Post-1980)

CN(N=O)C(N)=O
mutagenic call (Species/Cell Type: Allium cepa, Assay Type: Chromosome aberrations, Assay Code: ALC+D, Dose Response: With dose response, Evaluation Type: Evaluation A (Pre-1980)): active; positive | mutagenic call (Species/Cell Type: Arabidopsis species, Assay Type: Gene mutation, Assay Code: ARM+D, Dose Response: With dose response, Evaluation Type: Evaluation A (Pre-1980)): active; positive | mutagenic call (Species/Cell Type: Chinese hamster lung (V79) cells, Assay Type: Forward gene mutation at the HPRT or ouabain locus, Assay Code: V79+, Evaluation Type: Evaluation A (Pre-1980)): active; positive | mutagenic call (Species/Cell Type: Chinese hamster ovary (CHO) cells, Assay Type: Forward gene mutation at the HPRT locus, Assay Code: CHO+D, Dose Response: With dose response, Evaluation Type: Evaluation A (Pre-1980)): active; positive | mutagenic call (Species/Cell Type: Drosophila melanogaster, Assay Type: Aneuploidy, partial sex chromosome loss, chromosome aberrations, Assay Code: DAP+M, Evaluation Type: Evaluation A (Pre-1980)): active; positive | mutagenic call (Species/Cell Type: Drosophila melanogaster, Assay Type: Aneuploidy, whole sex chromosome loss, chromosome aberrations, Assay Code: DAC+M, Evaluation Type: Evaluation A (Pre-1980)): active; positive | mutagenic call [1]: active; positive | mutagenic call (Species/Cell Type: Drosophila melanogaster, Sex: Male, Assay Type: Heritable translocation test, chromosome aberrations, Assay Code: DHT+, Evaluation Type: Evaluation A (Pre-1980)): active; positive | mutagenic call (Species/Cell Type: Escherichia coli WP2, Assay Type: Tryptophan reverse gene mutation, Assay Code: WP2+, Evaluation Type: Evaluation A (Pre-1980)): active; positive | mutagenic call (Species/Cell Type: Escherichia coli WP2 UVRA, Assay Type: Tryptophan reverse gene mutation, Assay Code: WPU+, Evaluation Type: Evaluation A (Pre-1980)): active; positive | mutagenic call (Species/Cell Type: Escherichia coli polA (W3119 vs P3478), Assay Type: Rec-assay, DNA effects (bacterial DNA repair), Assay Code: RE1+, Evaluation Type: Evaluation A (Pre-1980)): active; positive | mutagenic call (Species/Cell Type: Glycine max (soybean), Assay Type: Gene mutation, Assay Code: GLM+, Evaluation Type: Evaluation A (Pre-1980)): active; positive | mutagenic call (Species/Cell Type: Hordeum vulgare (barley), Assay Type: Chromosome aberrations, Assay Code: HOC+, Evaluation Type: Evaluation A (Pre-1980)): active; positive | mutagenic call (Species/Cell Type: Hordeum vulgare (barley), Assay Type: Gene mutation, Assay Code: HOM+, Evaluation Type: Evaluation A (Pre-1980)): active; positive | mutagenic call (Species/Cell Type: Human cell culture, Assay Type: Chromosome aberrations in vitro, Assay Code: CYZ+, Evaluation Type: Evaluation A (Pre-1980)): active; positive | mutagenic call (Species/Cell Type: Human diploid fibroblasts, Assay Type: Unscheduled DNA synthesis (UDS) in vitro, DNA effects, Assay Code: UDH+, Evaluation Type: Evaluation A (Pre-1980)): active; positive | mutagenic call (Species/Cell Type: Human lymphocytes, Assay Type: Sister-chromatid exchange (SCE) in vitro, Assay Code: SCL+D, Dose Response: With dose response, Evaluation Type: Evaluation B (Post-1980)): active; positive | mutagenic call [2]: active; positive | mutagenic call [3]: no conclusion | mutagenic call (Species/Cell Type: Mouse germ cells, Sex: Male, Assay Type: Unscheduled DNA synthesis (UDS) in vivo, DNA effects, Assay Code: UDT+, Evaluation Type: Evaluation A (Pre-1980)): active; positive | mutagenic call (Species/Cell Type: Mouse, Sex: Male, Assay Type: Sperm morphology, Assay Code: SPI+, Evaluation Type: Evaluation A (Pre-1980)): active; positive | mutagenic call (Species/Cell Type: Neurospora crassa, Assay Type: Forward gene mutation, Assay Code: NEF+, Evaluation Type: Evaluation A (Pre-1980)): active; positive | mutagenic call [4]: active; positive | call (Species/Cell Type: Nonhuman, Assay Code: CCG+, Evaluation Type: Evaluation A (Pre-1980)): active; positive | mutagenic call (Species/Cell Type: Nonhuman, Assay Type: Sister-chromatid exchange (SCE) in vitro, Assay Code: SC2+, Evaluation Type: Evaluation A (Pre-1980)): active; positive | mutagenic call (Species/Cell Type: Nonhuman, Assay Type: Sister-chromatid exchange (SCE) in vitro, Assay Code: SC2+D, Dose Response: With dose response, Evaluation Type: Evaluation B (Post-1980)): active; positive | mutagenic call (Species/Cell Type: Nonhuman, Assay Type: Sister-chromatid exchange (SCE) in vivo, Assay Code: SC3+D, Dose Response: With dose response, Evaluation Type: Evaluation B (Post-1980)): active; positive | mutagenic call (Species/Cell Type: Rat primary hepatocytes, Assay Type: Unscheduled DNA synthesis (UDS) in vitro, DNA effects, Assay Code: UDP+, Evaluation Type: Evaluation A (Pre-1980)): active; positive | mutagenic call [5]: inactive; negative | mutagenic call (Species/Cell Type: Saccharomyces cerevisiae, Assay Type: Aneuploidy, chromosome aberrations, Assay Code: YEN+, Evaluation Type: Evaluation A (Pre-1980)): active; positive | mutagenic call (Species/Cell Type: Saccharomyces cerevisiae, Assay Type: Mitotic recombination or gene conversion, Assay Code: YEC+, Evaluation Type: Evaluation A (Pre-1980)): active; positive | mutagenic call (Species/Cell Type: Saccharomyces cerevisiae, Assay Type: Reverse gene mutation, Assay Code: YER+, Evaluation Type: Evaluation A (Pre-1980)): active; positive | mutagenic call (Species/Cell Type: Salmonella typhimurium (one or more of the five standard strains: TA98, TA100, TA1535, TA1537, and TA1538), Assay Type: Histidine reverse gene mutation, Ames assay, Assay Code: SAL+, Evaluation Type: Evaluation A (Pre-1980)): active; positive | mutagenic call (Species/Cell Type: Salmonella typhimurium, Escherichia coli, Serratia marcesens, Assay Type: Forward and reverse gene mutation, host-mediated assay, Assay Code: HMN+, Evaluation Type: Evaluation A (Pre-1980)): active; positive | mutagenic call (Species/Cell Type: Vicia faba, Assay Type: Chromosome aberrations, Assay Code: VIC+, Evaluation Type: Evaluation A (Pre-1980)): active; positive | mutagenic call (Species/Cell Type: Zea mays (corn), Assay Type: Gene mutation, Assay Code: ZEM+D, Dose Response: With dose response, Evaluation Type: Evaluation A (Pre-1980)): active; positive

CCN(CCCl)CCCNc1ccnc2cc(Cl)ccc12
mutagenic call [4]: active; positive

CCCOC(=O)c1ccc(O)cc1
mutagenic call [6]: inactive; negative

O=c1c2ccccc2sc2c(CO)ccc(NCCN3CCCCC3)c12
mutagenic call (Species/Cell Type: Mouse lymphoma (L5178Y) cells, Assay Type: Forward gene mutation at the thymidine kinase (TK) locus, chromosome aberrations, Assay Code: L51+, Evaluation Type: Evaluation A (Pre-1980)): active; positive

Nc1ccc(N)cc1
mutagenic call (Species/Cell Type: Allium cepa, Assay Type: Chromosome aberrations, Assay Code: ALC+, Evaluation Type: Evaluation A (Pre-1980)): active; positive | mutagenic call [1]: active; positive | mutagenic call (Species/Cell Type: Fischer rat embryo (RLV/1706) cells, Assay Type: Cell transformation, viral enhanced, Assay Code: CTR+, Evaluation Type: Evaluation A (Pre-1980)): active; positive | mutagenic call [3]: no conclusion | mutagenic call [7]: inactive; negative | mutagenic call (Species/Cell Type: Neurospora crassa, Assay Type: Aneuploidy, chromosome aberrations, Assay Code: NEN-, Evaluation Type: Evaluation A (Pre-1980)): inactive; negative | call (Species/Cell Type: Nonhuman, Assay Code: CCG-, Evaluation Type: Evaluation A (Pre-1980)): inactive; negative | mutagenic call [5]: inactive; negative | mutagenic call [8]: active; positive

CN1CCN(CC(=O)NN)CC1
mutagenic call (Species/Cell Type: Escherichia coli WP2, Assay Type: Tryptophan reverse gene mutation, Assay Code: WP2-, Evaluation Type: Evaluation A (Pre-1980)): inactive; negative | mutagenic call (Species/Cell Type: Saccharomyces cerevisiae, Assay Type: Mitotic recombination or gene conversion, Assay Code: YEC-*, Activation: With metabolic activation, Evaluation Type: Evaluation A (Pre-1980)): inactive; negative

C[C@]12C=CC(=O)C=C1CC[C@@H]1[C@@H]2CC[C@@]2(C)[C@H]1CC[C@]2(C)O
mutagenic call (Species/Cell Type: Human, Sex: Male, Assay Type: Sperm morphology, Assay Code: SPH+, Evaluation Type: Evaluation A (Pre-1980)): active; positive

CCC1(c2ccccc2)C(=O)NC(=O)NC1=O
mutagenic call (Species/Cell Type: Human lymphocytes, Assay Type: Sister-chromatid exchange (SCE) in vivo, Assay Code: SCY+, Evaluation Type: Evaluation B (Post-1980)): active; positive | mutagenic call [9]: active; positive | mutagenic call [3]: no conclusion | mutagenic call [7]: inactive; negative | mutagenic call (Species/Cell Type: Syrian hamster embryo (SHE) cells, Assay Type: Cell transformation, clonal assay, Assay Code: CTC-, Evaluation Type: Evaluation A (Pre-1980)): inactive; negative

CN(C)c1ccc(-c2ccc(N(C)C)cc2)cc1
mutagenic call [6]: inactive; negative

[Cl][La]([Cl])[Cl]
mutagenic call (Species/Cell Type: Bacillus subtilis (H17 vs M45), Assay Type: Rec-assay, spot test, DNA effects (bacterial DNA repair), Assay Code: REW-, Evaluation Type: Evaluation A (Pre-1980)): inactive; negative

CC1=C(/C=C/C(C)=C/C=C/C(C)=C/COc2ccccc2)C(C)(C)CCC1
mutagenic call [2]: active; positive

O=C(CCl)NCO
mutagenic call [9]: active; positive

O=C1NC(=O)C(c2ccc(O)cc2)(c2ccc(O)cc2)N1
mutagenic call (Species/Cell Type: Mammalian polychromatic erythrocytes, Assay Type: Micronucleus test, chromosome aberrations, Assay Code: MNTT, Evaluation Type: Evaluation B (Post-1980)): no conclusion

CC(=O)[O-].CC(=O)[O-].[Cd+2]
call (Species/Cell Type: Nonhuman, Assay Code: CCGT, Evaluation Type: Evaluation A (Pre-1980)): no conclusion | mutagenic call (Species/Cell Type: Nonhuman, Assay Type: Sister-chromatid exchange (SCE) in vitro, Assay Code: SC2-, Evaluation Type: Evaluation B (Post-1980)): inactive; negative | mutagenic call [8]: active; positive | mutagenic call (Species/Cell Type: Syrian hamster embryo (SHE) cells, Assay Type: Cell transformation, clonal assay, Assay Code: CTC+, Evaluation Type: Evaluation A (Pre-1980)): active; positive
